Laboratory results reported in ChEMBL document CHEMBL4041469, “The replacement of the 2-methoxy substituent of N-((6,6-diphenyl-1,4-dioxan-2-yl)methyl)-2-(2-methoxyphenoxy)ethan-1-amine improves the selectivity for 5-HT1A receptor over α1-adrenoceptor and D2-like receptor subtypes” (Eur J Med Chem, 2017).
Activity calls are given as the source filed them. The calls are words filed in the database; no cut-off is given here.

Legend:
[1] = molecular target: T1, Alpha-1D adrenergic receptor (Homo sapiens, UniProt P25100); test: Displacement of [3H]prazosin from recombinant human alpha-1d adrenergic receptor expressed in CHO cell membranes after 30 mins by liquid scintillation counting method
T1 sequence (P25100 whole entry): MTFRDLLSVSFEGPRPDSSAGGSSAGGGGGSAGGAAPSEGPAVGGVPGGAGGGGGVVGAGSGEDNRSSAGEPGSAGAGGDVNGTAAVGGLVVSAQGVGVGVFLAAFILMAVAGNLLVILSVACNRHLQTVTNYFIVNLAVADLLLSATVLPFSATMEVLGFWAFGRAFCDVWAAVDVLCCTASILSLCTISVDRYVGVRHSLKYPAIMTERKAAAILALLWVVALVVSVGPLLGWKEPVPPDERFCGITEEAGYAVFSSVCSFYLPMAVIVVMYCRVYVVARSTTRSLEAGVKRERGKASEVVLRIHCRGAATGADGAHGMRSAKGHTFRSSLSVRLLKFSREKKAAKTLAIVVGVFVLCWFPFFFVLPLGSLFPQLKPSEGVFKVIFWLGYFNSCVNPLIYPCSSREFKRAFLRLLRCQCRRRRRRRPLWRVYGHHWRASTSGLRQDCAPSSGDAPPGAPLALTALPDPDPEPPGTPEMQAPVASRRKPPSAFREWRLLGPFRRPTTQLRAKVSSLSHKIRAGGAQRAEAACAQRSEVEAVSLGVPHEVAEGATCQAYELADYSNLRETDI

[2] = tested on: Mus musculus; test: Anxiolytic activity in CD-1 mouse assessed as increase in time spent in light area at 2.5 mg/kg, ip administered 30 mins prior to test by light/dark exploration test; assay type: functional, organism-based
[3] = tested on: Mus musculus; test: Anxiolytic activity in CD-1 mouse assessed as increase in latency time to enter dark area at 2.5 mg/kg, ip administered 30 mins prior to test by light/dark exploration test; assay type: functional, organism-based
[4] = molecular target: T2, 5-hydroxytryptamine receptor 1A (Homo sapiens) (UniProt P08908); test: Agonist activity at recombinant human 5HT1A receptor expressed in human HeLa cell membranes assessed as stimulation of [35S]GTPgammaS binding preincubated for 20 mins followed by [35S]GTPgammaS addition measured after 30 mins by liquid scintillation counting method; assay type: functional
T2 sequence (whole entry): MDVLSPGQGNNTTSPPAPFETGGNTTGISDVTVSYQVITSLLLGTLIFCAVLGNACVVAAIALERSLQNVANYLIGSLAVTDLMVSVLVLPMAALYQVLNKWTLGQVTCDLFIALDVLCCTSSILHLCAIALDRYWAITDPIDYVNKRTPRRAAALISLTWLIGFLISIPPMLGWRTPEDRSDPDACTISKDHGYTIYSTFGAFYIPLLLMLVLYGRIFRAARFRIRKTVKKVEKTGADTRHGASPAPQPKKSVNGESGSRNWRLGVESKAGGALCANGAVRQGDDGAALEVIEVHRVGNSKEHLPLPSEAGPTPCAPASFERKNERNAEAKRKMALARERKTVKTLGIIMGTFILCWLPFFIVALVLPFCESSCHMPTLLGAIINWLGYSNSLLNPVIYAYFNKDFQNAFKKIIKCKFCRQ

[5] = Selectivity index, ratio of Ki for recombinant human D4 receptor expressed in HEK293 cell membranes to Ki for recombinant human 5HT1A receptor expressed in human HeLa cell membranes
[6] = molecular target: T3, D(4) dopamine receptor (Homo sapiens, UniProt P21917); test: Displacement of [3H]N-methylspiperone from recombinant human D4 receptor expressed in HEK293 cell membranes after 1 hr by liquid scintillation counting method
T3 sequence (P21917 whole entry): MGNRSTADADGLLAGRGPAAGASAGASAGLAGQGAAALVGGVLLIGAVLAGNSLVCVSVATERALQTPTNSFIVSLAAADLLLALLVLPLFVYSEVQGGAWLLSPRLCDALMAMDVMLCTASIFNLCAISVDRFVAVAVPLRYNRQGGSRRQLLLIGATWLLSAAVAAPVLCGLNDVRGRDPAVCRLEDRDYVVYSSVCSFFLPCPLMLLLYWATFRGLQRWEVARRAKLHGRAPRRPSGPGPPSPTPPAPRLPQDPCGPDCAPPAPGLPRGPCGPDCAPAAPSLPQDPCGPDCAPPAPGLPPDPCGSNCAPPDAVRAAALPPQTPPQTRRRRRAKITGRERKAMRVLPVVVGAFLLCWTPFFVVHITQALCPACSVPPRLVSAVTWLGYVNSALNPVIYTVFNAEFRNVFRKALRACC

[7] = Selectivity index, ratio of Ki for recombinant human alpha-1b adrenergic receptor expressed in CHO cell membranes to Ki for recombinant human 5HT1A receptor expressed in human HeLa cell membranes
[8] = Selectivity index, ratio of Ki for recombinant human alpha-1d adrenergic receptor expressed in CHO cell membranes to Ki for recombinant human 5HT1A receptor expressed in human HeLa cell membranes
[9] = Selectivity index, ratio of Ki for recombinant human alpha-1a adrenergic receptor expressed in CHO cell membranes to Ki for recombinant human 5HT1A receptor expressed in human HeLa cell membranes
[10] = molecular target: D(3) dopamine receptor (Homo sapiens, UniProt P35462); test: Displacement of [3H]N-methylspiperone from recombinant human D3 receptor expressed in HEK293 cell membranes after 1 hr by liquid scintillation counting method
D(3) dopamine receptor, sequence (P35462 whole entry): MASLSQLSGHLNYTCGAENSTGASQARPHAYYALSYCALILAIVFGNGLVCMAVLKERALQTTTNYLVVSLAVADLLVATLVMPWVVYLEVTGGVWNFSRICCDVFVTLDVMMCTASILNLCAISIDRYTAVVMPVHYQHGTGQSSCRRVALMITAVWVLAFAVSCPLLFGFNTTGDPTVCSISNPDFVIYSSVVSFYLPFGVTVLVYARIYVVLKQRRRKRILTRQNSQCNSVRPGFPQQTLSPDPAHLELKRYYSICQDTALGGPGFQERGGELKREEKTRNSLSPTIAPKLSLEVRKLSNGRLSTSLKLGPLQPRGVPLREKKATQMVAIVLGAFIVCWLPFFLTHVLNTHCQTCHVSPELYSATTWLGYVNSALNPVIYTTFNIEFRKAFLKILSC

[11] = Selectivity index, ratio of Ki for recombinant human D2 receptor expressed in HEK293 cell membranes to Ki for recombinant human 5HT1A receptor expressed in human HeLa cell membranes
[12] = molecular target: D(2) dopamine receptor (Homo sapiens, UniProt P14416); test: Displacement of [3H]N-methylspiperone from recombinant human D2 receptor expressed in HEK293 cell membranes after 1 hr by liquid scintillation counting method
D(2) dopamine receptor, sequence (P14416 whole entry): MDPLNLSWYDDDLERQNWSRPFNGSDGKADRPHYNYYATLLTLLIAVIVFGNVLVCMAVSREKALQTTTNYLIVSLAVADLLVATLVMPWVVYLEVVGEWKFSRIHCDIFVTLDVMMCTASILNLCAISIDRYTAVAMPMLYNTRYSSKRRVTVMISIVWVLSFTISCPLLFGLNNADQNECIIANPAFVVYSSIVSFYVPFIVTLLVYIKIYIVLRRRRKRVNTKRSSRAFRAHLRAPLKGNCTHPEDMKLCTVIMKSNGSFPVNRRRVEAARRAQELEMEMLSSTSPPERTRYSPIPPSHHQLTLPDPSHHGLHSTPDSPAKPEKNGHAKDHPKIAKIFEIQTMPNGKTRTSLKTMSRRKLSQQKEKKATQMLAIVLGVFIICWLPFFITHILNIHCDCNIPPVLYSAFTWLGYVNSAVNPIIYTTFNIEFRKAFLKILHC

[13] = Selectivity index, ratio of Ki for recombinant human D3 receptor expressed in HEK293 cell membranes to Ki for recombinant human 5HT1A receptor expressed in human HeLa cell membranes
[14] = molecular target: T4, Alpha-1A adrenergic receptor (Homo sapiens, UniProt P35348); test: Displacement of [3H]prazosin from recombinant human alpha-1a adrenergic receptor expressed in CHO cell membranes after 30 mins by liquid scintillation counting method
T4 sequence (P35348 whole entry): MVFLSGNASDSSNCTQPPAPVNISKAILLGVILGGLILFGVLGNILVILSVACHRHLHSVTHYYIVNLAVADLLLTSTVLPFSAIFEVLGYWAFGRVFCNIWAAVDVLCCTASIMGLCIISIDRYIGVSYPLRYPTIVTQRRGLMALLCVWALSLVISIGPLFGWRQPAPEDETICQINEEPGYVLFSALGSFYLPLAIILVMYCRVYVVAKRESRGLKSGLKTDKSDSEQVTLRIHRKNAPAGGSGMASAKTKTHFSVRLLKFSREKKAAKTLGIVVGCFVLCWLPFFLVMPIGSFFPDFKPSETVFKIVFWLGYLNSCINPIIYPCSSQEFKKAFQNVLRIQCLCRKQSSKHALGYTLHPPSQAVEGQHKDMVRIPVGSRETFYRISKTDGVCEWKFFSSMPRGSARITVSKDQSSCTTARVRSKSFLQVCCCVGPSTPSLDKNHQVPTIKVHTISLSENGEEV

[15] = molecular target: T5, 5-hydroxytryptamine receptor 1A (Homo sapiens, UniProt P08908); test: Displacement of [3H]8-OH-DPAT from recombinant human 5HT1A receptor expressed in human HeLa cell membranes after 30 mins by liquid scintillation counting method
T5 sequence (P08908 whole entry): T2 sequence (whole entry)

[16] = molecular target: T2, 5-hydroxytryptamine receptor 1A (Homo sapiens); test: Agonist activity at recombinant human 5HT1A receptor expressed in human HeLa cell membranes assessed as stimulation of [35S]GTPgammaS binding up to 10 uM preincubated for 20 mins followed by [35S]GTPgammaS addition measured after 30 mins by liquid scintillation counting method relative to 5-HT; assay type: functional
[17] = molecular target: T6, Alpha-1B adrenergic receptor (Homo sapiens, UniProt P35368); test: Displacement of [3H]prazosin from recombinant human alpha-1b adrenergic receptor expressed in CHO cell membranes after 30 mins by liquid scintillation counting method
T6 sequence (P35368 whole entry): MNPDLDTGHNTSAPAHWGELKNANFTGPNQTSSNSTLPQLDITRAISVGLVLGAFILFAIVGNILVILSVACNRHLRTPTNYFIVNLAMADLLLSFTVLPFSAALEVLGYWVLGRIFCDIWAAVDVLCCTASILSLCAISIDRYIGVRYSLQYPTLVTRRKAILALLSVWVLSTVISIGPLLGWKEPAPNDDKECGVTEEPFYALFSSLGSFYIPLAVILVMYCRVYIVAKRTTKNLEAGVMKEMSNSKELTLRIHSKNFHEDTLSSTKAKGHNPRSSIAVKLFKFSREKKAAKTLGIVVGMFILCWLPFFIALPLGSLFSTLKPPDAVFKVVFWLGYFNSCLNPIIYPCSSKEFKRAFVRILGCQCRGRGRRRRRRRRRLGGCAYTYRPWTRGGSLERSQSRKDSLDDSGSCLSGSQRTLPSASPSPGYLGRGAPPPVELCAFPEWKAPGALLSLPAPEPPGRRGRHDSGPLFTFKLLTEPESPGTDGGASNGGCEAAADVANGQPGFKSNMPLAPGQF

[18] = tested on: Mus musculus; test: Anxiolytic activity in ip dosed CD-1 mouse assessed as increase in latency time to enter dark area administered 30 mins prior to test by light/dark exploration test; assay type: functional, organism-based
[19] = tested on: Mus musculus; test: Anxiolytic activity in CD-1 mouse assessed as increase in time spent in light area at 30 mg/kg, ip administered 30 mins prior to test in presence of 5HT1A receptor antagonist WAY100135 by light/dark exploration test; assay type: functional, organism-based
[20] = tested on: Mus musculus; test: Anxiolytic activity in ip dosed CD-1 mouse assessed as increase in time spent in light area administered 30 mins prior to test by light/dark exploration test; assay type: functional, organism-based

| SMILES | Ki [1] [nM] | pD2 [4] | Ki [14] [nM] | Ki [15] [nM] | Emax [16] [%] | Ki [17] [nM] | other results |
| --- | --- | --- | --- | --- | --- | --- | --- |
| O=C1CC2(CCCC2)CC(=O)N1CCN1CCN(c2ccccc2O)CC1 | 16.2 |  |  |  |  |  |  |
| CN1C(=O)CN=C(c2ccccc2)c2cc(Cl)ccc21 |  |  |  |  |  |  | Activity [2]: Active; Activity [3]: Active |
| COc1cccc(OC)c1OCCNC[C@@H]1COCC(c2ccccc2)(c2ccccc2)O1 |  | 5.88 |  |  |  |  |  |
| COc1cccc(OC)c1OCCNC[C@H]1COCC(c2ccccc2)(c2ccccc2)O1 |  | 8.3 |  |  |  |  |  |
| COc1ccccc1N1CCN(CCN2C(=O)CC3(CCCC3)CC2=O)CC1 |  | 9.27 |  |  |  |  |  |
| COc1ccccc1OCCNC[C@@H]1COCC(c2ccccc2)(c2ccccc2)O1 |  | 7.7 |  |  |  |  |  |
| COc1ccccc1OCCNC[C@H]1COCC(c2ccccc2)(c2ccccc2)O1 |  | 9.19 |  |  |  |  |  |
| COc1ccccc1OCCNCC1COCC(c2ccccc2)(c2ccccc2)O1 (racemic) |  | 9.4 |  |  |  |  | Ratio Ki [5]: 13; Ki [6]: 8.32 nM; Ratio Ki [7]: 85; Ratio Ki [8]: 2; Ratio Ki [9]: 42; Ki [10]: 13.2 nM; Ratio Ki [11]: 19; Ki [12]: 12.3 nM; Ratio Ki [13]: 20 |
| O=[N+]([O-])c1ccccc1OCCNCC1COCC(c2ccccc2)(c2ccccc2)O1 (racemic) | 6.61 | 8.93 | 117 | 0.562 | 82.5 to 82.6 | 251 |  |
| Cc1ccccc1OCCNCC1COCC(c2ccccc2)(c2ccccc2)O1 (racemic) | 5.01 | 8.73 | 170 | 1.12 | 59.7 | 178 |  |
| COCOc1ccccc1OCCNCC1COCC(c2ccccc2)(c2ccccc2)O1 (racemic) | 79.4 | 9.41 | 282 | 0.631 | 62.8 | 288 | Ratio Ki [5]: 81; Ki [6]: 51.3 nM; Ratio Ki [7]: 457; Ratio Ki [8]: 126; Activity [18]: Dose-dependent effect; Activity [19]: inactive; Activity [20]: Dose-dependent effect; Ratio Ki [9]: 447; Ki [10]: 66.1 nM; Ratio Ki [11]: 166; Ki [12]: 105 nM; Ratio Ki [13]: 105 |
| Clc1ccccc1OCCNCC1COCC(c2ccccc2)(c2ccccc2)O1 (racemic) | 5.89 | 8.7 | 115 | 0.794 | 66 | 120 |  |
| COc1ccccc1OCCNCC1COC(c2ccccc2)(c2ccccc2)CO1 (racemic) |  |  |  | 7.59 |  |  |  |
| c1ccc(OCCNCC2COC(c3ccccc3)(c3ccccc3)CO2)cc1 (racemic) |  |  |  | 37.2 |  |  |  |
| Oc1ccccc1OCCNCC1COCC(c2ccccc2)(c2ccccc2)O1 (racemic) | 77.6 | 7.8 | 195 | 0.692 | 65.6 | 372 | Ratio Ki [5]: 53; Ki [6]: 36.3 nM; Ratio Ki [8]: 112; Ki [10]: 33.9 nM; Ratio Ki [11]: 22; Ki [12]: 15.5 nM; Ratio Ki [13]: 49 |
| COc1cccc(OC)c1OCCNCC1COC(c2ccccc2)(c2ccccc2)CO1 (racemic) |  |  |  | 229 |  |  |  |
| c1ccc(C2(c3ccccc3)COCC(CNCCOc3ccccn3)O2)cc1 (racemic) | 5.5 | 8.02 | 155 | 0.891 | 63.9 | 115 |  |
| COc1cccc(OC)c1OCCNCC1COCC(c2ccccc2)(c2ccccc2)O1 (racemic) |  | 8.28 |  |  |  |  |  |
| COc1ccccc1OCCNC[C@@H]1COC[C@H](c2ccccc2)O1 (racemic) |  |  |  |  | 78.1 |  |  |
| COc1ccccc1OCCNC[C@@H]1CO[C@H](c2ccccc2)CO1 (racemic) |  | 7.88 |  |  | 85.5 |  |  |
